Laboratory results published in patent publication US20240115540A1, “METHODS FOR PROVIDING HEALTH BENEFITS IN ANIMALS” (Société des Produits Nestlé S.A., priority 2022, published 2024).

Tested on: db/db mice
Experiment: CKD mice study: db/db mice fed test diets for 8 weeks (glomerular hyperfiltration, glycogen storage, kidney histology)
Format: in vivo
Method: The present study used db/db mice at 8 weeks of age for 8 weeks of intervention. The mice were divided into 4 groups of 9-10 mice administered with different blends (the Control group was administered with standard AIN-93M diet, the Dapa Group was administered standard AIN-93M augmented with dapagliflozin at 10 mg/kg, the RPB group was administered a standard diet augmented with a renal protection blend, the RPB+ group was administered a standard diet augmented with a renal protection blend that included medium chain triglycerides); the diets are shown in Table 1. The blends were administered to study glomerular hyperfiltration and glycogen storage in tissues. Final weekly food intake, final body weight, final blood glucose level, final lean body mass, and final fat mass of the groups is presented in Table 2. Also presented in table 2 were GFR progression, urine albumin/creatine ratio, urine protein/creatinine ratio, glomerulosclerosis score, Periodic acid-Schiff (PAS) staining scores for distal convoluted tubule (DCT) lumen, PAS staining scores for intranuclear inclusions distal tubules, and PAS staining scores for cytoplamis aggregates distal tubules.
In addition to the measurements of Table 2, the mice were measured for hyalinosis on a scoring system of no hyalinosis, intermediate hyalinosis, or severe hyalinosis, where hyalinosis refers to the thickening of the walls of the glomerular arterioles by the deposits of homogenous hyaline material. […] The control group had 1 mouse with no hyalinosis, 4 mice with intermediate hyalinosis, and 4 with significant hyalinosis; the dapa group had 2 mice with no hyalinosis, 5 mice with intermediate hyalinosis, and 2 mice with significant hyalinosis, the RPB group had 5 mice with no hyalinosis, 4 mice with intermediate hyalinosis, and 1 mouse with significant hyalinosis, and the RPB+ group had 2 mice with no hyalinosis and 8 mice with intermediate hyalinosis.

[1] = glomerular arterioles, groups of 9-10
[2] = kidney tissue, 8 weeks of intervention

## CCOc1ccc(Cc2cc([C@@H]3O[C@H](CO)[C@@H](O)[C@H](O)[C@H]3O)ccc2Cl)cc1 [Dapa, dapagliflozin]
8 weeks of intervention
  GFR progression: 0.01 mL/min
After 8 weeks of intervention
  Blood glucose (final): 464.78 mg/dL
  Fat mass (final): 23.99 g
  Lean mass (final lean body mass): 15.31 g
[1]
  number of mice with intermediate hyalinosis: 5 mice
  number of mice with no hyalinosis: 2 mice
  number of mice with significant (severe) hyalinosis: 2 mice
[2]
  Glomerulosclerosis score: 1.83
  PAS DCT lumen (PAS staining score, distal convoluted tubule lumen): 1.44
  PAS cytoplasmic aggregates DT (PAS staining score, distal tubules): 1.78
  PAS intranuclear inclusions DT (PAS staining score, distal tubules): 2.11
urine, 8 weeks of intervention
  Albumin/Creatinine ratio: 181.54
  Protein/Creatinine ratio: 36.92
